Consider twelve molecules from ChEMBL document CHEMBL1201862, “PubChem BioAssay data set” (2004).

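Each compound was tested at five concentrations against cells in 96-well plates for 48 hours. At the GI50, growth is halved.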 Active and inactive are the calls of the source. No stated cut-off is given here; in the data, active = GI50 up to about 1.1 µM and inactive = higher.

Some test systems named below: OVCAR-5; DMS-273; MOLT-4; HOP-62; NCI-H23; K562; SK-MEL-2; HCT-116; HCC 2998; UACC-257; UACC-62; ACHN; UO-31; M14; OVCAR-3; HOP-92; SF-295; MDA-N; MDA-MB-435; DU-145.
Holding throughout (assay): NCI tumour cell line growth inhibition, 48 h

Consider `CC(=O)SC(SC(C)=O)SC(C)=O`, for which the GI50 in the test with OVCAR-5 is > 100 µM (inactive); with DMS-273, > 100 µM (inactive); in the test on MOLT-4, 43.9 µM (inactive); in the test on HOP-62, > 100 µM (inactive); in the test on NCI-H23 it was > 100 µM (inactive); with K562, 54.5 µM (inactive). Further, the GI50 with SK-MEL-2 was > 100 µM (inactive); in the test with HCT-116, > 100 µM (inactive); in the test with HCC 2998, > 100 µM (inactive); in the test with UACC-257 it was 55 µM (inactive); in the test with UACC-62, 84.1 µM (inactive); with ACHN, > 100 µM (inactive). Further, the GI50 in the test with UO-31 is > 100 µM (inactive); in the test on M14, > 100 µM (inactive); with OVCAR-3 it was 91 µM (inactive).

As to `O=CC1CCC=CC1NC(=O)OCc1ccccc1` (stereo not drawn), the GI50 is 99.5 µM (inactive) with HOP-92; > 100 µM (inactive) in the test with OVCAR-5; 27.9 µM (inactive) in the test on DMS-273; 44.5 µM (inactive) with MOLT-4; > 100 µM (inactive) in the test on HOP-62; > 100 µM (inactive) with NCI-H23. Also, the GI50 is 4.68 µM (inactive) in the test with K562; 38.5 µM (inactive) in the test with SK-MEL-2; 19.1 µM (inactive) in the test on HCT-116; > 100 µM (inactive) with UACC-257; 42.5 µM (inactive) in the test with UACC-62; > 100 µM (inactive) in the test with ACHN. In addition, the GI50 in the test on UO-31 was > 100 µM (inactive); in the test on M14, 33.9 µM (inactive); with SF-295 it was 30.5 µM (inactive).

`O=C(NCCO)c1ccc([N+](=O)[O-])cc1`: the GI50 in the test on DMS-273, in the test with MOLT-4, with HOP-62, in the test on NCI-H23, in the test with K562 and with SK-MEL-2 was > 100 µM (inactive) each time. For the same molecule, the GI50 with HCC 2998, in the test on UACC-257, in the test on UACC-62, in the test with UO-31, in the test with M14 and with SF-295 was > 100 µM (inactive) each time. Further, the GI50 in the test with OVCAR-3 is > 100 µM (inactive).

Consider `CC(=O)C1C(c2ccccc2)C2(C)OC(=O)C(C#N)C12C` (stereo not drawn), for which the GI50 in the test with OVCAR-5, in the test with DMS-273, with MOLT-4, in the test on NCI-H23, in the test with K562 and in the test on SK-MEL-2 was > 100 µM (inactive) each time. Besides, the GI50 in the test with HCT-116, in the test with UACC-62, in the test with ACHN, with UO-31, in the test with M14 and with SF-295 was > 100 µM (inactive) throughout. Further, the GI50 with OVCAR-3 is > 100 µM (inactive).

With `CC12OC3(O)C4C5CC(C6C5C3C61)C42` (stereo not drawn), the GI50 in the test with DMS-273, with MOLT-4, in the test with HOP-62, in the test with K562, in the test on SK-MEL-2 and in the test on HCT-116 was > 100 µM (inactive) in each case. Further, the GI50 in the test with HCC 2998 was > 100 µM (inactive); in the test with UACC-257, > 100 µM (inactive); with UACC-62, > 100 µM (inactive); with ACHN, > 100 µM (inactive); in the test with UO-31, > 100 µM (inactive); with M14, 29.4 µM (inactive).

`N#CC(/C(=N/NC(=N)N)C(=O)Nc1ccccc1[N+](=O)[O-])c1nc(-c2ccc([N+](=O)[O-])cc2)cs1` (stereo not drawn): the GI50 in the test on OVCAR-5, with DMS-273, with MOLT-4, in the test with HOP-62, in the test with NCI-H23 and in the test on K562 was > 100 µM (inactive) throughout. The GI50 in the test with SK-MEL-2, in the test on HCT-116, with HCC 2998, in the test on UACC-257, in the test on UACC-62 and with ACHN was > 100 µM (inactive) throughout. In addition, the GI50 in the test with UO-31, in the test with M14, in the test on SF-295 and with OVCAR-3 was > 100 µM (inactive) each time.

For the molecule `CC(=O)Nc1ccc(S(=O)(=O)N/N=C/CN2C(=O)c3ccccc3C2=O)cc1`, the GI50 in the test with DMS-273, with MOLT-4, in the test on HOP-62, in the test on NCI-H23, in the test on K562 and with SK-MEL-2 was > 100 µM (inactive) each time. Moreover, the GI50 in the test on HCT-116, with HCC 2998, in the test on UACC-257, in the test on UACC-62, in the test on ACHN and in the test with UO-31 was > 100 µM (inactive) throughout. For the same molecule, the GI50 in the test on M14 and with SF-295 was > 100 µM (inactive) in each case.

`c1c2c(cc3c1OCO3)-c1cc3ccc4c(c3c[n+]1CC2)OCO4` [COPTISINE CHLORIDE]: the GI50 is 5.57 µM (inactive) in the test with HOP-92; > 12.5 µM (inactive) in the test with OVCAR-5; 0.299 µM (active) in the test on MDA-N; 1.29 µM (inactive) in the test on MOLT-4; 1.4 µM (inactive) in the test with HOP-62; 0.308 µM (active) in the test on MDA-MB-435. Moreover, the GI50 in the test on NCI-H23 was 0.815 µM (active); in the test on K562, 0.486 µM (active); in the test with SK-MEL-2, 0.555 µM (active); in the test with HCT-116, 0.447 µM (active); in the test with DU-145, 1.3 µM (inactive); in the test on HCC 2998 it was 3.85 µM (inactive). For the same molecule, the GI50 in the test with UACC-257 is 1.95 µM (inactive); with UACC-62 it was 0.891 µM (active); in the test on ACHN, 2.5 µM (inactive); in the test on UO-31, 0.857 µM (active); in the test with M14, 1 µM (active); in the test with SF-295, 0.927 µM (active). The GI50 with OVCAR-3 is 0.798 µM (active).

As to `C/C(=N\NC(N)=O)C(CN(C)C)C(c1ccccc1)c1c(O)c2ccccc2oc1=O` (stereo not drawn), the GI50 in the test with HOP-92 was 0.296 µM (active); in the test with OVCAR-5, > 100 µM (inactive); in the test with MDA-N it was > 100 µM (inactive); with MOLT-4, 71.9 µM (inactive); with HOP-62, > 100 µM (inactive); with MDA-MB-435, > 100 µM (inactive). Also, the GI50 with NCI-H23, in the test with K562, with SK-MEL-2, in the test on HCT-116, with DU-145 and in the test with HCC 2998 was > 100 µM (inactive) in each case. The GI50 in the test on UACC-257, with UACC-62, in the test on ACHN, in the test on UO-31, with M14 and with SF-295 was > 100 µM (inactive) each time. In addition, the GI50 with OVCAR-3 was > 100 µM (inactive).

Consider `O=C(O)COc1cc(-c2ccccc2)nc2cc(F)ccc12`, for which the GI50 with HOP-92, in the test on OVCAR-5, in the test with MDA-N, in the test on MOLT-4, in the test with HOP-62 and in the test with MDA-MB-435 was > 100 µM (inactive) in each case. Moreover, the GI50 in the test with NCI-H23 was > 100 µM (inactive); with K562 it was > 100 µM (inactive); in the test on SK-MEL-2, > 100 µM (inactive); in the test with HCT-116 it was > 100 µM (inactive); in the test with DU-145 it was > 100 µM (inactive); in the test on HCC 2998, 60 µM (inactive). In addition, the GI50 in the test with UACC-257 is > 100 µM (inactive); in the test with UACC-62 it was > 100 µM (inactive); in the test on ACHN, > 100 µM (inactive); in the test on UO-31, 64.7 µM (inactive); with M14, > 100 µM (inactive); in the test with SF-295, > 100 µM (inactive). Also, the GI50 with OVCAR-3 is > 100 µM (inactive).

In the case of `CC(=O)OC1CC(O)CC2=CCC3C4CCC(C(C)(O)C(O)CC5COC(=O)C5C)C4(C)CCC3C21C` (stereo not drawn), the GI50 with HOP-92, in the test with OVCAR-5, in the test with MDA-N, in the test with MOLT-4, in the test on HOP-62 and with MDA-MB-435 was > 25 µM (inactive) each time. In addition, the GI50 is > 25 µM (inactive) in the test on NCI-H23; 18.4 µM (inactive) in the test with K562; > 25 µM (inactive) in the test on SK-MEL-2; 15.2 µM (inactive) with HCT-116; > 25 µM (inactive) in the test with DU-145; > 25 µM (inactive) in the test with HCC 2998. For the same molecule, the GI50 with UACC-257 is > 25 µM (inactive); in the test on UACC-62, 21.4 µM (inactive); with ACHN, > 25 µM (inactive); in the test on UO-31, 8.59 µM (inactive); in the test on M14, > 25 µM (inactive); in the test on SF-295, > 25 µM (inactive). In addition, the GI50 in the test with OVCAR-3 was > 25 µM (inactive).

As to `COC(=O)C1=C(OC(=O)c2ccccc2)C(C(=O)OC)[C@]2(O)[C@@H](C(=O)OC)[C@H]1C[C@@H](c1ccccc1)[C@@H]2C(=O)OC` (stereo partly drawn), the GI50 was 2.82 µM (inactive) in the test with HOP-92; 22.9 µM (inactive) in the test with OVCAR-5; 1.95 µM (inactive) in the test with MDA-N; 3.64 µM (inactive) in the test with MOLT-4; 13.2 µM (inactive) in the test with HOP-62; 2.45 µM (inactive) in the test with MDA-MB-435. Also, the GI50 with NCI-H23 is 6.32 µM (inactive); in the test on K562, 3.33 µM (inactive); with SK-MEL-2, 2.81 µM (inactive); in the test with HCT-116 it was 3.96 µM (inactive); in the test on DU-145 it was 9.4 µM (inactive); with HCC 2998, 7.21 µM (inactive). The GI50 was 5.62 µM (inactive) in the test with UACC-257; 11.6 µM (inactive) in the test with UACC-62; 10.9 µM (inactive) in the test on ACHN; 2.52 µM (inactive) in the test with UO-31; 1.95 µM (inactive) with M14; 5.82 µM (inactive) with SF-295. The GI50 in the test with OVCAR-3 is 10.8 µM (inactive).
